Laboratory results: patent EP2601945A1 (Thomale, Jürgen, priority 2011, dated 2013)
Entries after “also recorded” stand apart in the source; their conditions may differ.

Key:
[1] = tested on: K-rasG12D -induced lung tumors; assay: Tumor growth in the K-ras mouse model of NSCLC (H&E lung sections, Bioquant image analysis); format: in vivo, mice; details: for tumor number: not statistically significant
Text: (§1) Oncogenic mutations in the gene encoding the small GTPase K-ras are among the most frequently detected alterations in human lung cancer and approximately 30 % of all cases of human non-small cell lung cancer (NSCLC) carry such an activated K-ras allele with mutations predominantly located in codons 12, 13 or 61. Based on this observation a mouse model for NSCLC was recently established (Sweet-Cordero et al., 2004). The local activation of a silent transgenic K-rasG12D allele in these mice is achieved by intratracheal adenoviral transfection with the Cre recombinase (AdCre). The Cre recombinase cuts out a "stop" cassette and allows for expression of the oncogenic K-ras protein in transfected lung cells.
A cohort of tumor-bearing mice was randomly divided into three subgroups receiving different treatment regimens. Group one (mock treatment control) received i.p. injections once per week with PBS for 4 weeks. […] Mice were sacrificed 5 days after the last dose; lungs were dissected and prepared for paraffin sections. Following H&E staining for morphological structures, the percentage tumor burden, the number of tumors per lung and the average tumor size was determined microscopically (Figure 13 B-D, 14). […] For quantitative analysis the Bioquant image analysis software was used to blindly and randomly quantify the area of all lung tumors and the total lung surface area in 4 lung sections per mouse.

hearing capability = assay: BAER hearing test after repetitive cis-platin with or without DPH, or DPH alone
Protocol: Both groups received additional i.p. injections with saline solution (500 µl) in order to protect the mice from kidney injury. […] Like in the clinical BAER tests for humans, the hearing threshold was determined as the disappearance of wave V. This value was converted into percentage of hearing capability as compared to the untreated controls (dB to %). […] The mean value of the untreated mice was set as 100 %.

[2] = tested on: Pt-GG adducts in DNA of lung tumor cells; assay: ICA of Pt-GG adducts in primary lung tumor cells; format: in vivo, mice
Text: as §1, with “cells. When the initiation is performed at the age of 8 weeks, mice are diagnosed 16 weeks later with lung tumors at 100 % penetrance. The morphology and molecular characteristics of the tumors are very similar to human NSCLC and they respond with regression to chemotherapy with cis-platin.” for “cells.”
Mice bearing K-rasG12D -induced lung tumors were divided into two groups for acute high dose and for chronic low dose treatment. Animals received mocktreatment with PBS or cis-platin alone or cis-platin plus treatment with DPH. […] All mice were sacrificed 24 hours after the last treatment and cochleae, kidneys and lungs were resected for analysis of DNA adduct accumulation.

[3] = tested on: outer hair cells and stria vascularis marginal cells; assay: Electron microscopy of cochlear cell micromorphology; format: in vivo, mice; details: four times
[4] = cis-platin 7 mg/kg once per week for 4 weeks, DPH 57 mg/kg
[5] = cis-platin in combination with DPH (57 mg/kg 30 minutes before each dose)
[6] = cis-platin alone (7 mg/kg once per week for 4 weeks)

SMILES | average tumor size, cis-platin alone versus cis-platin plus inhibitor group [1, 4] | mean tumor burden in the lung, cis-platin alone versus in combination with DPH [1, 4] | reduction of average tumor size [1, 5] | reduction of tumor burden [1, 5] | tumor number ([1]; cis-platin plus DPH versus PBS) | hearing ability throughout the experiment (hearing capability; DPH alone 57 mg/kg repetitively, no cis-platin) | hearing sensitivity 24 hours later (hearing capability; DPH alone, single dose 57 mg/kg, BAER repeated 24 hours later) | hearing loss (hearing capability; cis-platin cumulated dose 20 mg/kg in combination with DPH 57 mg/kg 30 minutes before each dose) [%] | mean hearing capability, percentage of untreated controls (hearing capability; cis-platin cumulated dose 40 mg/kg plus DPH 57 mg/kg before each dose) | reduction of Pt-GG levels in lung tumor cells by DPH co-treatment ([2]; DPH 57 mg/kg 30 minutes prior to cis-platin, acute 10 mg/kg or chronic 4 x 5 mg/kg) | micromorphology of outer hair cells and marginal cells ([3]; DPH alone 57 mg/kg every second day) | micromorphology of outer hair cells and marginal cells ([3]; cis-platin 5 mg/kg plus DPH 57 mg/kg every second day) | reduction of average tumor size [1, 6] | reduction of tumor burden [1, 6] | tumor number ([1]; cis-platin alone versus PBS) | hearing capability, percentage of controls (hearing capability; cis-platin alone 5 mg/kg every second day, cumulated dose 20 mg/kg, BAER 24 h after last treatment) | reduction of hearing capacity (BAER) (hearing capability; cis-platin treatment alone, mice (description)) | adduct levels in lung tumor cells, repetitive treatment compared to single high dose treatment ([2]; cis-platin 4 x 5 mg/kg every second day versus 10 mg/kg once) | micromorphology of outer hair cells and marginal cells ([3]; cis-platin alone 5 mg/kg every second day)
CN(C)CCOC(c1ccccc1)c1ccccc1 [DPH, diphenhydramine] | no difference | no significant difference | about 50% | about 80% | reduced | did not show any difference | regained their normal hearing sensitivity | 20 | about 70% | no reduction | No signs of autophagy or necrosis | much less frequent and properly shaped; also recorded: rare autophagosome-like structures |  |  |  |  |  |  | 
N.N.[Cl][Pt][Cl] [cis-platin, cis-diaminedichloro-platinum(II)] |  |  |  |  |  |  |  |  |  |  |  |  | about 50% | about 80% | reduced | about 50% | about 45% | about two-fold higher | necrotic cell death
